# Values of other authors, collected in US20240315993A1, “ANTIPARASITIC COMPOUNDS” (Intervet Inc., priority 2021, published 2024).
# Assays:
# [1] = test system: Beet Armyworm (Spodoptera exigua); details: 128-well diet tray, average of eight wells, cited from earlier work; for Test A: Bioassay on BAW, percent mortality rating: Beet Armyworm second instar larvae, 50 μg/cm^2, five to seven days; for Test A: percent mortality of Beet Armyworm (BAW) larvae, rating: 50 μg/cm^2 on artificial diet, second instar larvae, 5-7 days
# [2] = test system: Cabbage Looper (Trichoplusia ni); details: 128-well diet tray, average of eight wells, cited from earlier work; for Test B: Bioassay on CL, percent mortality rating: Cabbage Looper second instar larvae, 50 μg/cm^2, five to seven days; for Test B: percent mortality of Cabbage Looper (CL) larvae, rating: 50 μg/cm^2 on artificial diet, second instar larvae, 5-7 days
# [3] = test system: Yellow Fever Mosquito (Aedes aegypti); details: 96-well plate, cited from earlier work; for Test C: Bioassay on Yellow Fever Mosquito, mortality rating: Aedes aegypti larvae about 1 day old, scored after 3 days; for Test C: mortality of Yellow Fever Mosquito larvae, rating: about 1 day-old larvae, graded after 3 days at room temperature
SMILES,"Test A: Bioassay on BAW, percent mortality rating [1]","Test B: Bioassay on CL, percent mortality rating [2]","Test C: Bioassay on Yellow Fever Mosquito, mortality rating [3]","Test A: percent mortality of Beet Armyworm (BAW) larvae, rating [1]","Test B: percent mortality of Cabbage Looper (CL) larvae, rating [2]","Test C: mortality of Yellow Fever Mosquito larvae, rating [3]"
Nc1cncc(NC(=O)c2cc(NC(=O)C3C(c4cc(Cl)cc(Cl)c4)C3(Cl)Cl)ccc2Cl)c1 (stereo not drawn) [c109],A (50-100),A (50-100),A (80-100),–,–,–
COC(=O)Nc1ccc(NC(=O)c2cc(NC(=O)[C@H]3[C@H](c4cc(Cl)cc(Cl)c4)C3(Cl)Cl)ccc2Cl)cc1 [c16],A (50-100),A (50-100),B (More than 0 - Less than 80),–,–,–
Cc1cc(NC(=O)OC(C)(C)C)ccc1NC(=O)c1cc(NC(=O)C2C(c3cc(Cl)cc(Br)c3)C2(Cl)Cl)ccc1Cl (stereo not drawn) [c102],A (50-100),A (50-100),D (No activity noticed in this bioassay),–,–,–
N#Cc1ccc(NC(=O)c2cc(NC(=O)C3C(c4cc(Cl)cc(Cl)c4)C3(Cl)Cl)ccc2Cl)nc1N (stereo not drawn) [c91],A (50-100),A (50-100),D (No activity noticed in this bioassay),–,–,–
Cc1c(NC(=O)c2cc(NC(=O)C3C(c4cc(Cl)cc(Cl)c4)C3(Cl)Cl)ccc2Cl)ccc2[nH]ccc12 (stereo not drawn) [c69],A (50-100),A (50-100),A (80-100),–,–,–
Cc1cc(N)ccc1NC(=O)c1cc(NC(=O)C2C(c3ccc(Br)c(Cl)c3)C2(Cl)Cl)ccc1Cl (stereo not drawn) [c101],A (50-100),A (50-100),A (80-100),–,–,–
O=C(Nc1ccc2c(c1)C(=O)NC2=O)c1cc(NC(=O)C2C(c3cc(Cl)cc(Cl)c3)C2(Cl)Cl)ccc1Cl (stereo not drawn) [c55],A (50-100),A (50-100),D (No activity noticed in this bioassay),–,–,–
Cc1c(NC(=O)c2cc(NC(=O)C3C(c4ccc(F)c(C(F)(F)F)c4)C3(Cl)Cl)ccc2Cl)cccc1NC(=O)C(F)(F)F (stereo not drawn) [c125],–,–,–,A (50-100),A (50-100),A (80-100)
Cc1cc(N)ccc1NC(=O)c1cccc(NC(=O)C2C(c3ccc(Cl)c(Cl)c3)C2(Cl)Cl)c1 (stereo not drawn) [c77],A (50-100),A (50-100),A (80-100),–,–,–
N#Cc1ccc(NC(=O)c2cc(NC(=O)C3C(c4cc(Cl)cc(Cl)c4)C3(Cl)Cl)ccc2Cl)cc1C(F)(F)F (stereo not drawn) [c54],A (50-100),A (50-100),A (80-100),–,–,–
CN1Cc2ccc(NC(=O)c3cc(NC(=O)C4C(c5cc(Cl)cc(Cl)c5)C4(Cl)Cl)ccc3Cl)cc2C1 (stereo not drawn) [c96],A (50-100),A (50-100),A (80-100),–,–,–
O=C(Nc1ccc(NC(=O)C2CC2(F)F)cc1)c1cc(NC(=O)[C@H]2[C@H](c3cc(Cl)cc(Cl)c3)C2(Cl)Cl)ccc1Cl (stereo partly drawn) [c7],A (50-100),A (50-100),A (80-100),–,–,–
O=C(Nc1ccc(-n2ccnc2)cc1)c1cc(NC(=O)[C@H]2[C@H](c3cc(Cl)cc(Cl)c3)C2(Cl)Cl)ccc1Cl [c1],A (50-100),A (50-100),A (80-100),–,–,–
Cn1ccc2cccc(NC(=O)c3cc(NC(=O)C4C(c5cc(Cl)cc(Cl)c5)C4(Cl)Cl)ccc3Cl)c21 (stereo not drawn) [c113],A (50-100),A (50-100),A (80-100),–,–,–
O=C(Nc1cnc2[nH]ccc2c1)c1cc(NC(=O)C2C(c3cc(Cl)cc(Cl)c3)C2(Cl)Cl)ccc1Cl (stereo not drawn) [c66],A (50-100),A (50-100),A (80-100),–,–,–
Cc1ccc(NC(=O)c2cc(NC(=O)C3C(c4cc(Cl)cc(Cl)c4)C3(Cl)Cl)ccc2Cl)c([N+](=O)[O-])c1 (stereo not drawn) [c52],A (50-100),A (50-100),A (80-100),–,–,–
Cc1cc(N)ccc1NC(=O)c1cccc(NC(=O)C2C(c3cc(Cl)cc(Cl)c3)C2(Cl)Cl)c1 (stereo not drawn) [c78],A (50-100),A (50-100),A (80-100),–,–,–
CNc1ccc(N(C)C(=O)c2cc(NC(=O)C3C(c4cc(Cl)c(Cl)c(Cl)c4)C3(Cl)Cl)ccc2Cl)c(C)c1 (stereo not drawn) [c49],A (50-100),A (50-100),A (80-100),–,–,–
O=C(Nc1ccc2cccnc2c1)c1cc(NC(=O)C2C(c3cc(Cl)cc(Cl)c3)C2(Cl)Cl)ccc1Cl (stereo not drawn) [c13],A (50-100),A (50-100),B (More than 0 - Less than 80),–,–,–
O=C(Nc1nc(-c2cccs2)cs1)c1cc(NC(=O)[C@H]2[C@H](c3cc(Cl)cc(Cl)c3)C2(Cl)Cl)ccc1Cl [c45],A (50-100),A (50-100),A (80-100),–,–,–
Cn1nc(NC(=O)c2cc(NC(=O)C3C(c4cc(Cl)cc(Cl)c4)C3(Cl)Cl)ccc2Cl)c2cc(C(F)(F)F)ccc21 (stereo not drawn) [c39],A (50-100),A (50-100),A (80-100),–,–,–
COCC(=O)N(C)c1ccc(NC(=O)c2cc(NC(=O)C3C(c4cc(Cl)cc(Cl)c4)C3(Cl)Cl)ccc2Cl)cc1 (stereo not drawn) [c115],–,–,–,A (50-100),A (50-100),B (More than 0 - Less than 80)
Cc1ccc2c(NC(=O)c3cc(NC(=O)C4C(c5cc(Cl)cc(Cl)c5)C4(Cl)Cl)ccc3Cl)n[nH]c2c1 (stereo not drawn) [c64],A (50-100),A (50-100),A (80-100),–,–,–
CNc1ccc(NC(=O)c2cc(NC(=O)C3C(c4cc(Cl)cc(Cl)c4)C3(Cl)Cl)ccc2Cl)cc1C (stereo not drawn) [c116],–,–,–,A (50-100),A (50-100),A (80-100)
O=C(Nc1nc2ccccc2s1)c1cc(NC(=O)C2C(c3cc(Cl)cc(Cl)c3)C2(Cl)Cl)ccc1Cl (stereo not drawn) [c19],A (50-100),A (50-100),B (More than 0 - Less than 80),–,–,–
Cc1nc2cc(NC(=O)c3cc(NC(=O)C4C(c5cc(Cl)cc(Cl)c5)C4(Cl)Cl)ccc3Cl)ccc2s1 (stereo not drawn) [c33],A (50-100),A (50-100),A (80-100),–,–,–
CNc1ccc(NC(=O)c2cc(NC(=O)C3C(c4cc(Cl)cc(Cl)c4)C3(Cl)Cl)ccc2Cl)c(C#N)c1 (stereo not drawn) [c58],A (50-100),A (50-100),A (80-100),–,–,–
O=C(Nc1ccc(-n2cnnc2)cc1)c1cc(NC(=O)[C@H]2[C@H](c3cc(Cl)cc(Cl)c3)C2(Cl)Cl)ccc1Cl [c9],A (50-100),A (50-100),A (80-100),–,–,–
O=C(Nc1nnn[nH]1)c1cc(NC(=O)[C@H]2[C@H](c3cc(Cl)cc(Cl)c3)C2(Cl)Cl)ccc1Cl [c22],A (50-100),A (50-100),B (More than 0 - Less than 80),–,–,–
Cc1ccc(NC(=O)c2cc(NC(=O)C3C(c4cc(Cl)cc(Cl)c4)C3(Cl)Cl)ccc2Cl)cc1N (stereo not drawn) [c31],A (50-100),A (50-100),B (More than 0 - Less than 80),–,–,–
